In patent US4746737A, “Phenyl guanidinobenzoate derivatives which have protease inhibitory activity” (Kowa Co., Ltd., priority 1985, dated 1988):
Structures can show the parent of a compound that is named as a salt.

Assays:
Solubility = assay type: physicochemical; settings: pH 3.57
rat's blood = experiment: Anticoagulant activity (blood coagulation time by thrombelastograph); settings: compound 1×10^-4 M, thrombelastogram
Method: A compound to be tested was dissolved into a physiological saline solution so as to have the final concentration of 1×10^-4 M and then cooled down by ice. A 0.05 ml of the thus prepared solution was added with 0.5 ml of rat's blood, followed by subjecting the obtained solution to a thrombelastograph (manufactured by Hellige Company). The blood coagulation time (r+k value) was determined by the obtained thrombelastogram.

trypsin = target: T1, trypsin (Bos taurus, UniProt P00760); experiment: Trypsin inhibitory activity; assay type: biochemical; settings: pH 8.0, 37° C., substrate Boc-Phe-Ser-Arg-MCA; read-out: Concentration for 50% inhibition, trypsin
T1 sequence (P00760 24-246): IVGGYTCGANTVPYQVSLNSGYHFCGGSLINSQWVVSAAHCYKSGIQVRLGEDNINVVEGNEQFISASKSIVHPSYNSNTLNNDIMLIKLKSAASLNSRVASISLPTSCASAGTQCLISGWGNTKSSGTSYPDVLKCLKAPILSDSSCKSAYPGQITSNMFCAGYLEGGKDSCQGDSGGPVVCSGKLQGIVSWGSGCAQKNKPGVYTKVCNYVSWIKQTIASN
Method: To 0.1 ml of a dimethylsulfoxide solution of a compound to be tested were added 0.3 ml of a 0.1M trishydrochloric acid buffer solution (pH 8.0) containing 10 mM of calcium chloride and 0.1 ml of a solution of 50 ng/ml of trypsin dissolved in the buffer solution, followed by incubation at 37° C. and 10 minutes. Thereafter, 5 microliters of a dimethylformamide solution of 10 mM Boc-Phe-Ser-Arg-MCA, followed by reaction at 37° C. for 30 minutes and addition of 0.5 ml of a 10% acetic acid solution to stop the reaction. The fluorecence of produced 7-amino-4-methylcumarin was measured by the use of a fluorometer (Fluorometer 650-40, by Hitachi Ltd.) under conditions of an excitation wavelength of 380 nm, a wavelength of the fluorescence of 460 nm and a slit width of 2 mm.
The inhibition rate of the respective compounds to be tested was calculated according to the following equation. [formula] in which T represents a measured value of "test specimen+enzyme+substrate", E represents a measured value of "enzyme+substrate", and S represents a measured value of "substrate".

thrombin = thrombin (Homo sapiens, UniProt P00734); experiment: Thrombin inhibitory activity; assay type: biochemical; settings: pH 7.4, 37° C., substrate Boc-Val-Pro-Arg-MCA; read-out: Concentration for 50% inhibition, thrombin
Method: To 0.1 ml of a dimethylsulfoxide solution of each of compounds to be tested were added 0.3 ml of a 0.1M phosphate buffer solution (pH 7.4) and 0.1 ml of a thrombin solution containing 100 mu/ml of thrombin in the buffer solution, followed by incubation at 37° C. for 10 minutes. To the solution was added […] of dimethylformamide solution of 10 mM Boc-Val-Pro-Arg-MCA for reaction at 37° C. for 30 minutes. Thereafter, the inhibition rate was calculated similar to the case of trypsin.

[1] = Acute toxicity (LD50), intravenous administration to mice; settings: mouse, in vivo

Structure (SMILES)	solubility (Solubility)	Blood coagulation time (r+k value) (rat's blood)	IC50 (trypsin)	IC50 (thrombin)	LD50 [1]
N=C(N)Nc1ccc(C(=O)Oc2ccc(C(=O)N3CCN(CC(N)=O)CC3)cc2)cc1 [Example 2, 4-[4-(carbamoylmethyl)piperazinocarbonyl]phenyl 4-guanidinobenzoate.dihydrochloride]	> 100 mg/mL	26.7 ± 3.3 min	20 nM	200 nM	150 to 200 mg/kg
N=C(N)Nc1ccc(C(=O)Oc2ccc(C(=O)N3CCN(CC(=O)N4CCOCC4)CC3)cc2)cc1 [Example 6, 4-[4-(Morpholynocarbonylmethyl)piperazinocarbonyl]phenyl 4-guanidinobenzoate.dihydrochloride]	–	15.3 ± 3.1 min	6 nM	400 nM	150 to 200 mg/kg
N=C(N)Nc1ccc(C(=O)Oc2ccc(C(=O)N3CCN(CC(=O)N4CCCC4)CC3)cc2)cc1 [Example 7, 4-[4-(Pyrrolidinocarbonylmethyl)piperazino-carbonyl]phenyl 4-guanidinobenzoate.dihydrochloride]	–	9.7 ± 0.3 min	7 nM	400 nM	100 to 150 mg/kg
CC(C)NC(=O)CN1CCN(C(=O)c2ccc(OC(=O)c3ccc(NC(=N)N)cc3)cc2)CC1 [Example 9, 4-[4-(Isopropylcarbamoylmethyl)piperazinocarbonyl]phenyl 4-guanidinobenzoate.dihydrochloride]	–	18.5 min	10 nM	400 nM	150 to 200 mg/kg
CCOC(=O)CN1CCN(C(=O)c2ccc(OC(=O)c3ccc(NC(=N)N)cc3)cc2)CC1 [Example 10, 4-[4-(Ethoxycarbonylmethyl)piperazinocarbonyl]phenyl 4-guanidinobenzoate.dihydrochloride]	–	10 min	20 nM	400 nM	150 to 200 mg/kg
COc1cc(C(=O)N2CCN(C(C)C)CC2)cc(OC)c1OC(=O)c1ccc(NC(=N)N)cc1 [Example 11, 4-(4-Isopropylpiperazinocarbonyl)-3,5-dimethoxyphenyl 4-gunanidinobenzoate.dihydrochloride]	–	–	400 nM	–	50 to 100 mg/kg
N=C(N)Nc1ccc(C(=O)Oc2ccc(C(=O)N3CCN(CC(=O)N4CCCCC4)CC3)cc2)cc1 [Example 12, 4-[4-(Piperidinocarbonylmethyl)piperazinocarbonyl]phenyl 4-guanidinobenzoate.dihydrochloride]	–	14.5 min	10 nM	–	100 to 150 mg/kg
CC(C)N1CCN(C(=O)c2ccc(OC(=O)c3ccc(NC(=N)N)cc3)cc2)CC1 [Example 13, 4-(4-Isopropylpiperazinocarbonyl)phenyl 4-guanidinobenzoate.dihydrochloride]	–	21 ± 3.9 min	20 nM	–	50 to 100 mg/kg
CC(C(=O)NCCN(C)C)N1CCN(C(=O)c2ccc(OC(=O)c3ccc(NC(=N)N)cc3)cc2)CC1 (centres unmarked) [Example 22, 4-[4-[1-(2-Dimethylaminoethylcarbamoyl)ethyl]piperazinocarbonyl]phenyl 4-guanidinobenzoate.trihydrochloride]	–	20.5 ± 0.8 min	40 nM	–	–
N=C(N)Nc1ccc(C(=O)Oc2ccc(C(=O)N3CCN(CCNC(=O)OCc4ccccc4)CC3)cc2)cc1 [Example 25, 4-[4-(2-Benzyloxycarbonylaminoethyl)piperazinocarbonyl]phenyl 4-guanidinobenzoate.dihydrochloride]	–	18.8 ± 1.2 min	20 nM	–	–
N=C(N)Nc1ccc(C(=O)Oc2ccc(C(=O)N3CCN(CC(=O)O)CC3)cc2)cc1 [Example 27, 4-[4-(Guanidinobenzoyloxy)benzoyl]piperazino-acetic acid:dihydrochloride]	–	19.2 ± 2.3 min	40 nM	–	–
N=C(N)Nc1ccc(C(=O)Oc2ccc(C(=O)N3CCNCC3)cc2)cc1 [Example 29, 4-Piperazinocarbonylphenyl 4-guanidinobenzoate.dihydrochloride]	–	34.8 ± 5.5 min	30 nM	–	–
CN1CCN(C(=O)c2ccc(OC(=O)c3ccc(NC(=N)N)cc3)cc2)CC1 [Example 30, 4-(4-Methylpiperazinocarbonyl)phenyl 4-guanidinobenzoate.dihydrochloride]	–	16.5 ± 1.6 min	30 nM	–	–
N=C(N)Nc1ccc(C(=O)Oc2ccc(C(=O)N3CCCN(CC(N)=O)CC3)cc2)cc1 [Example 33, 4-(4-Carbamoylmethylhomopiperazinocarbonyl)phenyl 4-guanidinobenzoate.dihydrochloride]	–	32 ± 2.5 min	20 nM	–	–
CN(C)CCNC(=O)c1ccc(OC(=O)c2ccc(NC(=N)N)cc2)cc1 [Example 34, 4-(N,N-Dimethylethylenediaminocarbonyl)phenyl 4-guanidinobenzoate.dihydrochloride]	–	41.3 ± 3.9 min	10 nM	–	–
CN(C)CCN(C)C(=O)c1ccc(OC(=O)c2ccc(NC(=N)N)cc2)cc1 [Example 37, 4-(N,N,N'-Trimethylethylenediaminocarbonyl)phenyl 4-guanidinobenzoate.dihydrochloride]	–	46.5 ± 4.5 min	40 nM	–	–
CN(CCN(C)C(=O)c1ccc(OC(=O)c2ccc(NC(=N)N)cc2)cc1)CC(N)=O [Example 38, 4-[(N-Carbamoylmethyl-N,N'-dimethylethylenediamino)carbonyl]phenyl 4-guanidinobenzoate.dihydrochloride]	–	34.2 ± 1.6 min	30 nM	–	–
CN(C)C(=O)COC(=O)Cc1ccc(OC(=O)c2ccc(NC(=N)N)cc2)cc1 [Reference compound A, reference compound]	–	9.8 ± 0.6 min	50 nM	–	280 mg/kg
CCOC(=O)c1ccc(OC(=O)CCCCCNC(=N)N)cc1 [Reference compound B, reference compound]	–	9.8 ± 1.6 min	400 nM	–	313 mg/kg
